Laboratory results taken from US7994209B2, “3-phenoxymethylpyrrolidine compounds” (Theravance, Inc., priority 2009, dated 2011).

biological target: hNET (Homo sapiens, UniProt P23975); assay: hNET membrane radioligand binding assay (3H-nisoxetine), Assay 1; settings: not given
Sequence (P23975 whole entry): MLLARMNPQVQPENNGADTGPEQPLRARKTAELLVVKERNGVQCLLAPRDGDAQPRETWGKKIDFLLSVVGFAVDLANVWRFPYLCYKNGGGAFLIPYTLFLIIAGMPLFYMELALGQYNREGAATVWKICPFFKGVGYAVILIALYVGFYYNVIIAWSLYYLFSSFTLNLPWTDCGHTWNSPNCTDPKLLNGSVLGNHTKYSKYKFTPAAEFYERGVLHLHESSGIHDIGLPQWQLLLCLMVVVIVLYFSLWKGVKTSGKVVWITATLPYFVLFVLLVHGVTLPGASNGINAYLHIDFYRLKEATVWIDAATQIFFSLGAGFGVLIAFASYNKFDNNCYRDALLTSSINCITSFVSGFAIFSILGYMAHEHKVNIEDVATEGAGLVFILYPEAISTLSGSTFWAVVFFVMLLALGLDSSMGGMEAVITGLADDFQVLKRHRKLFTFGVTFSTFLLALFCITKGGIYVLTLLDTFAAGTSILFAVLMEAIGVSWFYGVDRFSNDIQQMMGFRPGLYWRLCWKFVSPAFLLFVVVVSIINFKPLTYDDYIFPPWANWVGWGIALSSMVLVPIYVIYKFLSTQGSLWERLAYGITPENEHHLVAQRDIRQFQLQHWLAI

Compound	Ki [nM]
CCC[C@@H](Oc1ccc(Cl)cc1C)[C@H]1CCNC1 [Example 4-60, (S)-3-[(R)-1-(4-Chloro-2-methylphenoxy)butyl]pyrrolidine]	≤ 100
CCC[C@H](Oc1ccc(Cl)cc1C(F)(F)F)[C@H]1CCNC1 [Example 4-64, (S)-3-[(S)-1-(4-Chloro-2-trifluoromethylphenoxy)butyl]pyrrolidine]	≤ 10
CCC[C@@H](Oc1ccc(Cl)cc1C(F)(F)F)[C@H]1CCNC1 [Example 4-65, (S)-3-[(R)-1-(4-Chloro-2-trifluoromethylphenoxy)butyl]pyrrolidine]	≤ 100
CCC[C@H](Oc1ccc(Cl)cc1C(F)(F)F)[C@@H]1CCNC1 [Example 4-66, (R)-3-[(S)-1-(4-Chloro-2-trifluoromethylphenoxy)butyl]pyrrolidine]	≤ 100
CCC[C@@H](Oc1ccc(Cl)cc1C(F)(F)F)[C@@H]1CCNC1 [Example 4-67, (R)-3-[(R)-1-(4-Chloro-2-trifluoromethylphenoxy)butyl]pyrrolidine]	≤ 100
CCC[C@H](Oc1cccc(Cl)c1C(F)(F)F)[C@H]1CCNC1 [Example 4-68, (S)-3-[(S)-1-(3-Chloro-2-trifluoromethylphenoxy)butyl]pyrrolidine]	≤ 10
CCC[C@@H](Oc1cccc(Cl)c1C(F)(F)F)[C@H]1CCNC1 [Example 4-69, (S)-3-[(R)-1-(3-Chloro-2-trifluoromethylphenoxy)butyl]pyrrolidine]	≤ 100
CCC[C@H](Oc1cccc(Cl)c1C(F)(F)F)[C@@H]1CCNC1 [Example 4-70, (R)-3-[(S)-1-(3-Chloro-2-trifluoromethylphenoxy)butyl]pyrrolidine]	≤ 100

Other lines, results leading:

Ki [nM]	Compound
≤ 10	CC(C)[C@H](Oc1ccccc1F)[C@H]1CCNC1 [Example 6-1, (S)-3-[(S)-1-(2-Fluorophenoxy)-2-methylpropyl]pyrrolidine]
≤ 100	CC(C)C(Oc1ccccc1F)C1CCNC1 (stereo not drawn) [Example 6-2, 3-[1-(2-Fluorophenoxy)-2-methylpropyl]pyrrolidine]
≤ 100	CC(C)[C@@H](Oc1ccc(Cl)cc1Cl)[C@H]1CCNC1 [Example 6-22, (S)-3-[(R)-1-(2,4-Dichlorophenoxy)-2-methylpropyl]pyrrolidine]
≤ 10	CC(C)C(Oc1c(Cl)cccc1Cl)C1CCNC1 (stereo not drawn) [Example 6-27, 3-[1-(2,6-Dichlorophenoxy)-2-methylpropyl]pyrrolidine]
≤ 100	CC(C)[C@@H](Oc1c(Cl)cccc1Cl)[C@H]1CCNC1 [Example 6-29, (S)-3-[(R)-1-(2,6-Dichlorophenoxy)-2-methylpropyl]pyrrolidine]
≤ 100	Cc1cc(Cl)ccc1O[C@H](C(C)C)[C@H]1CCNC1 [Example 6-44, (S)-3-[(R)-1-(4-Chloro-2-methylphenoxy)-2-methylpropyl]pyrrolidine]
≤ 100	CC(C)[C@@H](Oc1ccc(Cl)cc1C(F)(F)F)[C@H]1CCNC1 [Example 6-52, (S)-3-[(R)-1-(4-Chloro-2-trifluoromethylphenoxy)-2-methylpropyl]pyrrolidine]
≤ 10	CC(C)[C@H](Oc1ccccc1[N+](=O)[O-])[C@H]1CCNC1 [Example 6-53, (S)-3-[(S)-2-Methyl-1-(2-nitrophenoxy)propyl]pyrrolidine]
≤ 10	CC(C)[C@H](Oc1cccc(F)c1)[C@H]1CCNC1 [Example 6-54, (S)-3-[(S)-1-(3-Fluorophenoxy)-2-methylpropyl]pyrrolidine]
≤ 100	CC(C)C(Oc1cccc(F)c1)C1CCNC1 (stereo not drawn) [Example 6-55, 3-[1-(3-Fluorophenoxy)-2-methylpropyl]pyrrolidine]

biological target: hSERT (Homo sapiens, UniProt P31645); assay: hSERT membrane radioligand binding assay (3H-citalopram), Assay 1; settings: SERT pKi, hSERT HEK-293 membranes, 1.0 nM 3H-citalopram; values given as lower bounds
Sequence (P31645 whole entry): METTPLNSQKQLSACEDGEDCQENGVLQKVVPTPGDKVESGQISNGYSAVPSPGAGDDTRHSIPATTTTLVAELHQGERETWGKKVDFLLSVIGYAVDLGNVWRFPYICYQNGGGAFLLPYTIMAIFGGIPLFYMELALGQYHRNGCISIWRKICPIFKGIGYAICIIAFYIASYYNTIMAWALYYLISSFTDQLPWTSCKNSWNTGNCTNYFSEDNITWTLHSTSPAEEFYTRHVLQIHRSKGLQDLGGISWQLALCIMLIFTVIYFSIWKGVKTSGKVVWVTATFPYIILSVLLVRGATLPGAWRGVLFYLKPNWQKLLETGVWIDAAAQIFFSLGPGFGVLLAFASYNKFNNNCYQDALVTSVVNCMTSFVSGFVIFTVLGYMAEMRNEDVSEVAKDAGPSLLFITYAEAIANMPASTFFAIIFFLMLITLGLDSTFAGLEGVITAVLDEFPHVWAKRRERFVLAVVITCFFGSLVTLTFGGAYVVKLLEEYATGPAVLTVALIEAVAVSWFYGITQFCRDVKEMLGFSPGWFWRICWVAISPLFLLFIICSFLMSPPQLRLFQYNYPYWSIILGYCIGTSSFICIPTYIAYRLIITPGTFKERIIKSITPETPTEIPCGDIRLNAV

Compound	Ki [nM]
CCC[C@@H](Oc1ccc(Cl)cc1C)[C@H]1CCNC1 [Example 4-60, (S)-3-[(R)-1-(4-Chloro-2-methylphenoxy)butyl]pyrrolidine]	≤ 10
CCC[C@H](Oc1ccc(Cl)cc1C(F)(F)F)[C@H]1CCNC1 [Example 4-64, (S)-3-[(S)-1-(4-Chloro-2-trifluoromethylphenoxy)butyl]pyrrolidine]	≤ 10
CCC[C@@H](Oc1ccc(Cl)cc1C(F)(F)F)[C@H]1CCNC1 [Example 4-65, (S)-3-[(R)-1-(4-Chloro-2-trifluoromethylphenoxy)butyl]pyrrolidine]	≤ 100
CCC[C@H](Oc1ccc(Cl)cc1C(F)(F)F)[C@@H]1CCNC1 [Example 4-66, (R)-3-[(S)-1-(4-Chloro-2-trifluoromethylphenoxy)butyl]pyrrolidine]	≤ 10
CCC[C@@H](Oc1ccc(Cl)cc1C(F)(F)F)[C@@H]1CCNC1 [Example 4-67, (R)-3-[(R)-1-(4-Chloro-2-trifluoromethylphenoxy)butyl]pyrrolidine]	≤ 10
CCC[C@H](Oc1cccc(Cl)c1C(F)(F)F)[C@H]1CCNC1 [Example 4-68, (S)-3-[(S)-1-(3-Chloro-2-trifluoromethylphenoxy)butyl]pyrrolidine]	≤ 10
CCC[C@@H](Oc1cccc(Cl)c1C(F)(F)F)[C@H]1CCNC1 [Example 4-69, (S)-3-[(R)-1-(3-Chloro-2-trifluoromethylphenoxy)butyl]pyrrolidine]	≤ 10
CCC[C@H](Oc1cccc(Cl)c1C(F)(F)F)[C@@H]1CCNC1 [Example 4-70, (R)-3-[(S)-1-(3-Chloro-2-trifluoromethylphenoxy)butyl]pyrrolidine]	≤ 10

Continued, values first:

Ki [nM]	Compound
≤ 100	CC(C)[C@H](Oc1ccccc1F)[C@H]1CCNC1 [Example 6-1, (S)-3-[(S)-1-(2-Fluorophenoxy)-2-methylpropyl]pyrrolidine]
≤ 100	CC(C)C(Oc1ccccc1F)C1CCNC1 (stereo not drawn) [Example 6-2, 3-[1-(2-Fluorophenoxy)-2-methylpropyl]pyrrolidine]
≤ 10	CC(C)[C@@H](Oc1ccc(Cl)cc1Cl)[C@H]1CCNC1 [Example 6-22, (S)-3-[(R)-1-(2,4-Dichlorophenoxy)-2-methylpropyl]pyrrolidine]
≤ 100	CC(C)C(Oc1c(Cl)cccc1Cl)C1CCNC1 (stereo not drawn) [Example 6-27, 3-[1-(2,6-Dichlorophenoxy)-2-methylpropyl]pyrrolidine]
≤ 100	CC(C)[C@@H](Oc1c(Cl)cccc1Cl)[C@H]1CCNC1 [Example 6-29, (S)-3-[(R)-1-(2,6-Dichlorophenoxy)-2-methylpropyl]pyrrolidine]
≤ 10	Cc1cc(Cl)ccc1O[C@H](C(C)C)[C@H]1CCNC1 [Example 6-44, (S)-3-[(R)-1-(4-Chloro-2-methylphenoxy)-2-methylpropyl]pyrrolidine]
≤ 100	CC(C)[C@@H](Oc1ccc(Cl)cc1C(F)(F)F)[C@H]1CCNC1 [Example 6-52, (S)-3-[(R)-1-(4-Chloro-2-trifluoromethylphenoxy)-2-methylpropyl]pyrrolidine]
≤ 100	CC(C)[C@H](Oc1ccccc1[N+](=O)[O-])[C@H]1CCNC1 [Example 6-53, (S)-3-[(S)-2-Methyl-1-(2-nitrophenoxy)propyl]pyrrolidine]
≤ 100	CC(C)[C@H](Oc1cccc(F)c1)[C@H]1CCNC1 [Example 6-54, (S)-3-[(S)-1-(3-Fluorophenoxy)-2-methylpropyl]pyrrolidine]
≤ 100	CC(C)C(Oc1cccc(F)c1)C1CCNC1 (stereo not drawn) [Example 6-55, 3-[1-(3-Fluorophenoxy)-2-methylpropyl]pyrrolidine]
